Reference: patent US8367687B2, “Pyrazole derivatives” (Novartis AG, priority 2007, dated 2013)
Like-named read-outs stand apart in the source and are kept apart here.

Assays:
Type in all cases: biochemical
CDK4 = CDK4 (Homo sapiens, UniProt P11802); assay: CDK4 HTRF
CDK2 cyA = CDK2 cyA (Homo sapiens, UniProt P24941); assay: CDK2 cyA IMAP
hCDK1/B = hCDK1/B (Homo sapiens, UniProt P06493); assay: hCDK1/B
[1] = Table 1, read-out: CDK2 cyA IMAP
[2] = Table 2, read-out: CDK4 HTRF/ IC50
[3] = Table 2, read-out: CDK2cyA IMAP/ IC50

Sequence of hCDK1/B (P06493 whole entry): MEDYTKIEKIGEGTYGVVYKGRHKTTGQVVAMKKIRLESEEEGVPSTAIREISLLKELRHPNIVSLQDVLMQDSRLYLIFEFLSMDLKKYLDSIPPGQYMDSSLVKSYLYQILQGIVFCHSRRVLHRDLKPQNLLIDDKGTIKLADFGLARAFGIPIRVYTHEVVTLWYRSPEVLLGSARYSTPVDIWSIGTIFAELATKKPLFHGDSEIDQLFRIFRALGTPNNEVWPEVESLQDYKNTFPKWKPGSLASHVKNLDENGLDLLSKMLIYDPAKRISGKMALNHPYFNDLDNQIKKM
Sequence of hCDK1/B (P14635 whole entry partner): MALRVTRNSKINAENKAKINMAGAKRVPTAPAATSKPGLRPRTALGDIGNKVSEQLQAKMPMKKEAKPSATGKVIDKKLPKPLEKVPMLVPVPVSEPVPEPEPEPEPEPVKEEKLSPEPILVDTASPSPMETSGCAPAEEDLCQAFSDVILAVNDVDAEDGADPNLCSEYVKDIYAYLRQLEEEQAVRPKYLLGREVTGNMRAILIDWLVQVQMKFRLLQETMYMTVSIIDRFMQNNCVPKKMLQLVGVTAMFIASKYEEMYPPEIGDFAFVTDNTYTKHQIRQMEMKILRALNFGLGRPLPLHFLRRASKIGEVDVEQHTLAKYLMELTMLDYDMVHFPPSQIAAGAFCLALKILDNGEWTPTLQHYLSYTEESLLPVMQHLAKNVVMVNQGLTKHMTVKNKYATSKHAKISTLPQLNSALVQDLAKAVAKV
Sequence of CDK4 (P11802 whole entry): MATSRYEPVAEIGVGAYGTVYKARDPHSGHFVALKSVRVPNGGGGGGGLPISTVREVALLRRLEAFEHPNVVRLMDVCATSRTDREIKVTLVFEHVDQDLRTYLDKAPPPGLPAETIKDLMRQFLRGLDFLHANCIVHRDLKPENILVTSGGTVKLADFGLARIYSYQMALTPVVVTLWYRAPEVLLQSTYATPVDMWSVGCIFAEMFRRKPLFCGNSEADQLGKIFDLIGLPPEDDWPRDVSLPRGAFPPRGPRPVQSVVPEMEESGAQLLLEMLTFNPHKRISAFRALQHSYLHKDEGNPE
Sequence of CDK4 (P24385 whole entry partner): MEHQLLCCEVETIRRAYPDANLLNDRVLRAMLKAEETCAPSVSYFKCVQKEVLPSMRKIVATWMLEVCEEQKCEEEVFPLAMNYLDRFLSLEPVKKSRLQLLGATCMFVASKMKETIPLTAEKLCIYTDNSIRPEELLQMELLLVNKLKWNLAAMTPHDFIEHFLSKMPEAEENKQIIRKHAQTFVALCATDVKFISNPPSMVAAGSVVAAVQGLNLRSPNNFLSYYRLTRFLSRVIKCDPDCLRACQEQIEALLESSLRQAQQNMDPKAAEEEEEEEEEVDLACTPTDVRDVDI

| IC50 (CDK4; Table 1, read-out: CDK4 HTRF) [µM] | IC50 (CDK2 cyA; [1]) [µM] | IC50 (hCDK1/B; Table 1) [µM] | IC50 (CDK4; [2]) [µM] | IC50 (CDK2 cyA; [3]) [µM] | IC50 (hCDK1/B; Table 2) [µM] | SMILES |
| --- | --- | --- | --- | --- | --- | --- |
| < 0.5 | < 15 | < 10 |  |  |  | CC(C)c1[nH]ncc1-c1ccnc(NC2CCN(C)CC2)c1 [Example 78] |
|  |  |  | < 0.5 | < 5 | < 5 | Cc1nnc(CCNc2nccc(-c3c[nH]nc3C(C)C)n2)[nH]1 [Example 161] |
|  |  |  | < 0.5 | < 10 | < 10 | Cc1n[nH]cc1-c1ccnc(NC2CCc3ccccc32)n1 (stereo not drawn) [Example 112] |
| < 0.5 | ≥ 15 | < 15 |  |  |  | CN1CCC(Nc2cc(-c3cn[nH]c3C3CC3)ccn2)CC1 [Example 80] |
|  |  |  | < 0.1 | < 5 | < 5 | CC(C)c1n[nH]cc1-c1ccnc(N[C@H](C)c2ccccn2)n1 [Example 187] |
|  |  |  | < 1 | < 5 | < 5 | CC(CCc1ccccc1)Nc1nccc(-c2c[nH]nc2C(C)C)n1 (stereo not drawn) [Example 155] |
|  |  |  | < 0.05 | < 1 | < 0.5 | CC(C)c1n[nH]cc1-c1ccnc(NC2CCN(C(=O)OC(C)(C)C)CC2)n1 [Example 140] |
|  |  |  | < 0.5 | < 1 | < 0.5 | Cc1ccccc1CNc1nccc(-c2c[nH]nc2C(C)C)n1 [Example 164] |
|  |  |  | < 0.5 | < 5 | < 5 | Cc1n[nH]cc1-c1ccnc(NC2Cc3ccccc3C2)n1 [Example 125] |
|  |  |  | < 5 | < 5 | < 5 | CC(C)c1n[nH]cc1-c1ccnc(NCc2ccccc2C(F)(F)F)n1 [Example 154] |
|  |  |  | < 1 | < 5 | < 5 | CC(C)c1n[nH]cc1-c1ccnc(N[C@H]2CCc3ccccc32)n1 [Example 175] |
|  |  |  | < 1 | < 0.5 | < 0.5 | CC(C)c1n[nH]cc1-c1ccnc(NCc2ccccc2F)n1 [Example 165] |
|  |  |  | < 5 | < 5 | < 5 | CC(C)c1n[nH]cc1-c1ccnc(NCc2ccc(N(C)C)cc2)n1 [Example 147] |
| < 5 | ≥ 15 | < 10 |  |  |  | CN1CCC(Nc2cc(-c3cn[nH]c3C3CCCC3)ccn2)CC1 [Example 79] |
|  |  |  | < 5 | ≥ 15 | ≥ 15 | Cc1[nH]nc(C(C)C)c1-c1ccnc(NC2CCN(C)CC2)n1 [Example 185] |
|  |  |  | < 0.5 | < 1 | < 1 | COCC(C)Nc1nccc(-c2c[nH]nc2C(C)C)n1 (stereo not drawn) [Example 152] |
| < 5 | < 5 | < 5 |  |  |  | CCC(C)c1[nH]ncc1-c1ccnc(NC2CCc3ccccc32)c1 (stereo not drawn) [Example 82] |
|  |  |  | < 1 | < 5 | < 5 | Cc1n[nH]cc1-c1ccnc(NC2CCCCC2)n1 [Example 84] |
|  |  |  | < 0.5 | < 5 | < 1 | CC(C)COCCCNc1nccc(-c2c[nH]nc2C(C)C)n1 [Example 150] |
|  |  |  | < 0.05 | < 0.5 | < 0.5 | CC(C)c1n[nH]cc1-c1ccnc(NC2CCN(c3ccccc3)CC2)n1 [Example 172] |
|  |  |  | < 0.05 | < 5 | < 1 | CC(C)c1n[nH]cc1-c1ccnc(NC(C)c2ccccc2)n1 (stereo not drawn) [Example 168] |
|  |  |  | < 15 | ≥ 15 | < 5 | CC(C)c1n[nH]cc1-c1ccnc(NCc2ccccc2OC(F)(F)F)n1 [Example 158] |
|  |  |  | < 1 | < 5 | < 5 | Cc1n[nH]cc1-c1ccnc(NC2CCCC2)n1 [Example 86] |
| < 1 | < 5 | < 5 |  |  |  | CCC(C)c1[nH]ncc1-c1ccnc(NCc2ccccc2C)c1 (stereo not drawn) [Example 81] |
|  |  |  | < 1 | < 5 | < 5 | Cc1n[nH]cc1-c1ccnc(NC2CCCNC2)n1 (stereo not drawn) [Example 138] |
|  |  |  | < 5 | < 10 | < 5 | Cc1n[nH]cc1-c1ccnc(NCCCn2ccnc2)n1 [Example 106] |
|  |  |  | < 5 | < 10 | < 15 | CC(C)c1n[nH]cc1-c1ccnc(NCCCNC2CCCCC2)n1 [Example 148] |
|  |  |  | < 5 | < 5 | < 5 | Cc1n[nH]cc1-c1ccnc(NCC(C)C)n1 [Example 92] |
|  |  |  | < 1 | < 10 | < 10 | Cc1n[nH]cc1-c1ccnc(NCCc2cccnc2)n1 [Example 132] |

Continued, compound first:

| SMILES | IC50 (CDK4; Table 1, read-out: CDK4 HTRF) [µM] | IC50 (CDK2 cyA; [1]) [µM] | IC50 (hCDK1/B; Table 1) [µM] | IC50 (CDK4; [2]) [µM] | IC50 (CDK2 cyA; [3]) [µM] | IC50 (hCDK1/B; Table 2) [µM] |
| --- | --- | --- | --- | --- | --- | --- |
| Cc1ccccc1CNc1cc(-c2cn[nH]c2C2CCCC2)ccn1 [Example 60] | < 0.5 | < 5 | < 5 |  |  |  |
| CCC(CC)c1[nH]ncc1-c1ccnc(NC2CCc3ccccc32)c1 (stereo not drawn) [Example 74] | < 5 | < 5 | < 5 |  |  |  |
| Cc1ccccc1CNc1cc(-c2cn[nH]c2C2CC2)ccn1 [Example 68] | < 0.1 | < 5 | < 5 |  |  |  |
| c1ccc(CCNc2cc(-c3cn[nH]c3C3CCCC3)ccn2)cc1 [Example 58] | < 0.5 | < 5 | < 5 |  |  |  |
| COCCCNc1cc(-c2cn[nH]c2C(C)C)ccn1 [Example 11] | < 1 | < 5 | < 5 |  |  |  |
| c1ccc2c(c1)CC(Nc1cc(-c3cn[nH]c3C3CC3)ccn1)C2 [Example 69] | < 0.1 | < 1 | < 1 |  |  |  |
| CC(C)CNc1cc(-c2cn[nH]c2C2CCCC2)ccn1 [Example 56] | < 0.5 | < 1 | < 5 |  |  |  |
| CCCCNc1cc(-c2cn[nH]c2C(C)C)ccn1 [Example 10] | < 0.5 | < 5 | < 5 |  |  |  |
| CCC(C)Nc1cc(-c2cn[nH]c2C(C)C)ccn1 (stereo not drawn) [Example 26] | < 0.5 | < 1 | < 5 |  |  |  |
| Cc1cccc(CNc2cc(-c3cn[nH]c3C(C)C)ccn2)c1 [Example 49] | < 5 | < 5 | < 5 |  |  |  |
| CC(C)c1[nH]ncc1-c1ccnc(NCCCCN2CCCC2)c1 [Example 33] | < 5 | ≥ 15 | ≥ 15 |  |  |  |
| c1cc(-c2cn[nH]c2C2CCCC2)cc(NC2CC2)n1 [Example 53] | < 0.5 | < 1 | < 5 |  |  |  |
| Cc1ccc(CNc2cc(-c3cn[nH]c3C(C)C)ccn2)cc1 [Example 28] | < 5 | < 5 | < 5 |  |  |  |
| CC(C)(C)c1[nH]ncc1-c1ccnc(NC2CCc3ccccc32)c1 (stereo not drawn) [Example 75] | < 15 | ≥ 15 | ≥ 15 |  |  |  |
| Cc1cccc(CNc2cc(-c3cn[nH]c3C3CCCC3)ccn2)c1 [Example 62] | < 5 | < 5 | < 5 |  |  |  |
| CC(C)c1[nH]ncc1-c1ccnc(NCc2ccccc2C(F)(F)F)c1 [Example 50] | < 1 | < 5 | < 5 |  |  |  |
| CC(C)c1[nH]ncc1-c1ccnc(NCCCO)c1 [Example 23] | < 5 | < 5 | < 5 |  |  |  |
| c1cc(-c2cn[nH]c2C2CCCC2)cc(NC2CCCCCC2)n1 [Example 55] | < 0.5 | < 1 | < 5 |  |  |  |

| SMILES | IC50 (CDK4; Table 1, read-out: CDK4 HTRF) [µM] | IC50 (CDK2 cyA; [1]) [µM] | IC50 (hCDK1/B; Table 1) [µM] | IC50 (CDK4; [2]) [µM] | IC50 (CDK2 cyA; [3]) [µM] | IC50 (hCDK1/B; Table 2) [µM] |
| --- | --- | --- | --- | --- | --- | --- |
| CCC(CC)c1[nH]ncc1-c1ccnc(NC2CCN(C(=O)OC(C)(C)C)CC2)c1 [Example 72] | < 1 | < 5 | < 1 |  |  |  |
| CC(C)c1[nH]ncc1-c1ccnc(NC2CCCCC2)c1 [Example 7] | < 0.5 | < 0.5 | < 1 |  |  |  |
| CC(C)c1[nH]ncc1-c1ccnc(NCCc2cccnc2)c1 [Example 15] | < 0.5 | < 5 | < 5 |  |  |  |
| CC(C)c1[nH]ncc1-c1ccnc(NC2CCCCCC2)c1 [Example 40] | < 0.5 | < 0.5 | < 1 |  |  |  |
| CC(C)c1[nH]ncc1-c1ccnc(NC(C)c2ccccc2)c1 (stereo not drawn) [Example 27] | < 1 | < 5 | < 5 |  |  |  |
| c1cc(-c2cn[nH]c2C2CCCC2)cc(NC2CCC2)n1 [Example 52] | < 0.5 | < 0.5 | < 5 |  |  |  |
| CC(C)c1[nH]ncc1-c1ccnc(NCCCCN(C)C)c1 [Example 18] | < 5 | ≥ 15 | ≥ 15 |  |  |  |
| CC(C)c1[nH]ncc1-c1ccnc(NCc2cc(F)cc(F)c2)c1 [Example 38] | < 1 | < 5 | < 5 |  |  |  |
| CN1CCC(Nc2cc(-c3cn[nH]c3C(C)(C)C)ccn2)CC1 [Example 77] | < 15 | < 15 | ≥ 15 |  |  |  |
| CCC(CC)c1[nH]ncc1-c1ccnc(NCc2ccccc2C)c1 [Example 71] | < 0.5 | < 5 | < 5 |  |  |  |
| CC(C)c1[nH]ncc1-c1ccnc(NCc2ccccc2)c1 [Example 4] | < 1 | < 5 | < 5 |  |  |  |
| c1cncc(CCNc2cc(-c3cn[nH]c3C3CCCC3)ccn2)c1 [Example 59] | < 0.5 | < 5 | < 5 |  |  |  |
| CC(C)c1[nH]ncc1-c1ccnc(NC2CC2)c1 [Example 39] | < 0.5 | < 1 | < 5 |  |  |  |
| FC(F)(F)c1ccccc1CNc1cc(-c2cn[nH]c2C2CCCC2)ccn1 [Example 63] | < 10 | < 5 | < 5 |  |  |  |
| CC(C)c1[nH]ncc1-c1ccnc(NC(CO)C(C)C)c1 (stereo not drawn) [Example 46] | < 0.5 | < 15 | < 10 |  |  |  |
| c1ccc2c(c1)CC(Nc1cc(-c3cn[nH]c3C3CCCCCC3)ccn1)C2 [Example 67] | < 5 | < 1 | < 5 |  |  |  |
| COc1ccc(CNc2cc(-c3cn[nH]c3C(C)C)ccn2)cc1 [Example 34] | < 5 | < 5 | < 5 |  |  |  |
| CC(C)CCNc1cc(-c2cn[nH]c2C(C)C)ccn1 [Example 12] | < 1 | < 5 | < 5 |  |  |  |
